In US6191288A, “Pyronin antibacterials, process and novel intermediates thereto” (Anadys Pharmaceuticals, Inc., priority 1999, dated 2001):
Converted amounts (≈) assume the structure as drawn. Read-outs that look alike come from different tables or passages of the source.

Experiments:
Human RNAP = Human RNAP (Homo sapiens, UniProt P24928+P30876); assay: biochemical; settings: Table II, in vitro transcription; read-out: IC50 human pol II
Procedure: (§1) In vitro transcription reactions. [α-^32 P] UTP-incorporated RNA was synthesized in 50 μl reaction volumes containing transcription buffer (50 mM Tris-HCl, pH 8.0, 200 mM KCL, 10 mM MgCl2, 10 mM DTT and 1.5 μM BSA), […] of DNA template, 4 μM UTP containing 5 μl of [α-^32 P] UTP, 400 μM each of ATP, GTP, and CTP. After incubation for 60 minutes at 25 ° C., the reaction is terminated with 100 μl 10% TCA, which also recipitates the newly transcribed RNA.

S. aureus RNAP = S. aureus RNAP (Staphylococcus aureus, UniProt P47768+Q2G0N5); assay: In vitro transcription assay, S. aureus RNAP; assay type: biochemical
Procedure: as §1

E. coli [1] = assay: Microdilution MIC, E. coli; assay type: cell-based; settings: Escherichia coli
Procedure: (§2) Different dilutions are performed for natural product extracts.

E. coli RNA polymerase = E. coli RNA polymerase (Escherichia coli, UniProt P0A8T7+P0A8V2); assay: In vitro transcription assay, E. coli RNA polymerase; assay type: biochemical; settings: for Relative potency in the in vitro transcription assay using E. coli RNA polymerase: FIGS. 20a,b, comparison in words; for IC50: Table II, in vitro transcription, read-out: IC50 E. coli (source of polymerase) (converted)
E. coli RNA polymerase, sequence (P0A8V2 whole entry): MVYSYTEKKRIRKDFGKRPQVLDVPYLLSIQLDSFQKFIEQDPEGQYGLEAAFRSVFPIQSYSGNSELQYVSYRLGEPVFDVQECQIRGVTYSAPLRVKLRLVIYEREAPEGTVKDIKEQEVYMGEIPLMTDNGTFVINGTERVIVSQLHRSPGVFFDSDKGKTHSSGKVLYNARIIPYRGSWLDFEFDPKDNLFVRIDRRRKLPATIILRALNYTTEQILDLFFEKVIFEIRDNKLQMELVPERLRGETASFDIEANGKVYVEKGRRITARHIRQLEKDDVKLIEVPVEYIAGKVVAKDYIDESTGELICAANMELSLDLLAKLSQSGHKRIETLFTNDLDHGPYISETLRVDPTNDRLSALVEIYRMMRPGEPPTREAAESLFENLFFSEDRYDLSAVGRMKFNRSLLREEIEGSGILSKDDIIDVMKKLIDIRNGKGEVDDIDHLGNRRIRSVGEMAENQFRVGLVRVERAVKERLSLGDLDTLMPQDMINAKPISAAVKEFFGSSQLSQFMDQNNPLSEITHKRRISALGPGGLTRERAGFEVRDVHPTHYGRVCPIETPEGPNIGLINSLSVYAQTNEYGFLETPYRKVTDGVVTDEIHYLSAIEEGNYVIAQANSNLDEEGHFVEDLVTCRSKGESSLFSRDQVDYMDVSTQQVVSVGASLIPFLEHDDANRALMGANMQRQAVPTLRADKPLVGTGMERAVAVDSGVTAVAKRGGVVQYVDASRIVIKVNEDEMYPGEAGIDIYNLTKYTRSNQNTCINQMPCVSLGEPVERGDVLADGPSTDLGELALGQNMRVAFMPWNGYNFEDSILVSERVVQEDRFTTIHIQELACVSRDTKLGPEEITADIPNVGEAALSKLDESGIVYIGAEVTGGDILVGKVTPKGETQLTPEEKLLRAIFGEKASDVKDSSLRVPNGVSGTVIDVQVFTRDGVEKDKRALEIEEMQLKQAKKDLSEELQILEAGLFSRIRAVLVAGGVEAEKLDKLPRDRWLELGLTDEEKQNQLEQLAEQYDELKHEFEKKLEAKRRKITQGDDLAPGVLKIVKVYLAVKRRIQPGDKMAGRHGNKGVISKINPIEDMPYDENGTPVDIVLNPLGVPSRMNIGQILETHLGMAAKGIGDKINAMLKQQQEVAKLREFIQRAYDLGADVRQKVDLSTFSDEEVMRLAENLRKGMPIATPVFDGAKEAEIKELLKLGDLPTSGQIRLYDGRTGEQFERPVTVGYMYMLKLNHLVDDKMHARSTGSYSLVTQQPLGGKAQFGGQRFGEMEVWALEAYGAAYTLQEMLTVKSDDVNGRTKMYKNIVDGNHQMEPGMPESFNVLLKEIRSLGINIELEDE
E. coli RNA polymerase, sequence (P0A8T7 whole entry): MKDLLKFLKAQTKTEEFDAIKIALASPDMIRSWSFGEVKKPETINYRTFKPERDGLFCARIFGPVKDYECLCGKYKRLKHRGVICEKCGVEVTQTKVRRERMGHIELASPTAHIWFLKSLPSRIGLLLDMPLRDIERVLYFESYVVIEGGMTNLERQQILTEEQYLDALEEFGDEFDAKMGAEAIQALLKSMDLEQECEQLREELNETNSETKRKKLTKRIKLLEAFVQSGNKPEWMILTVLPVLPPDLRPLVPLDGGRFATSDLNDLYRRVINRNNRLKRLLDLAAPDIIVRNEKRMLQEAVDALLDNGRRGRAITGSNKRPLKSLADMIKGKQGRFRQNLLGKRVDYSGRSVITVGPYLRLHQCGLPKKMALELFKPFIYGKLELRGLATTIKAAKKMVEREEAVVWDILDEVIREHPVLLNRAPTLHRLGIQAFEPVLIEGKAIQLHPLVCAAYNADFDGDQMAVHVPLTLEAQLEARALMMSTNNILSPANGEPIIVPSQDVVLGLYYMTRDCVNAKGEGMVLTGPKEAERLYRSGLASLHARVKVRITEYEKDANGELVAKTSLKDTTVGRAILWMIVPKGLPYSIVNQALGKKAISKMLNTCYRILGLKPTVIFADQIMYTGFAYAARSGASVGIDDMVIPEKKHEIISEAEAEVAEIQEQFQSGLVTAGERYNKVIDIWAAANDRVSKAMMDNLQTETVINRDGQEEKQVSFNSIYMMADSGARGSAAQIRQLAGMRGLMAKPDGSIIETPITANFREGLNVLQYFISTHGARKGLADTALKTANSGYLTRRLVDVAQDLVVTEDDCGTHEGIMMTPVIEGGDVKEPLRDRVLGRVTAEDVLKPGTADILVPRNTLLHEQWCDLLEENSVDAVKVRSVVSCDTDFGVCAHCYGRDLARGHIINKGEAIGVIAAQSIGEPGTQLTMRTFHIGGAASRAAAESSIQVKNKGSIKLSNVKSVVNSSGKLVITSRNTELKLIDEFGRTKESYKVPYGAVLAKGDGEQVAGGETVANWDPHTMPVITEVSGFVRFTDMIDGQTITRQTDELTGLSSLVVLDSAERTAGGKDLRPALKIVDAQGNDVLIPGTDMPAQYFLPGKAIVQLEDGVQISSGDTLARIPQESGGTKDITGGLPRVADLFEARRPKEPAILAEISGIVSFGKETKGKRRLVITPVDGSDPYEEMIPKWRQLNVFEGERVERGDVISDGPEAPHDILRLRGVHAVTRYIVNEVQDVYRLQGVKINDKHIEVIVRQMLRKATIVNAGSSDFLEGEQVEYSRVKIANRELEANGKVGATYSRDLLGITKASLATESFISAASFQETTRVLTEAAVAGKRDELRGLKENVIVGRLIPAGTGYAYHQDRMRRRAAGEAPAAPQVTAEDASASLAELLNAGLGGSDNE
E. coli RNA polymerase, sequence (P0A7Z4 whole entry partner): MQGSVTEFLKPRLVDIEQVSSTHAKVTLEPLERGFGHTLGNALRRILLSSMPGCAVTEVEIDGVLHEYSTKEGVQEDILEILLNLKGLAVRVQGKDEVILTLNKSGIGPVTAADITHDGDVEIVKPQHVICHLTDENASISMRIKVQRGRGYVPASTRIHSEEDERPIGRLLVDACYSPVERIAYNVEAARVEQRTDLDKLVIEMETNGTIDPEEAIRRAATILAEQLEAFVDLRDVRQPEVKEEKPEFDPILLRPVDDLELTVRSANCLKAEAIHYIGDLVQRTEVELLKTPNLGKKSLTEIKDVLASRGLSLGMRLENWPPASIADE
E. coli RNA polymerase, sequence (P0A800 whole entry partner): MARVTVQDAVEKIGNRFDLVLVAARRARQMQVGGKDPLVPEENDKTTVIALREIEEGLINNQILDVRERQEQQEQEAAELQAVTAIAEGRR
Procedure: as §1

E. coli [2] = assay: MBC, E. coli; assay type: cell-based; settings: Escherichia coli
Excerpt: (§3) The minimum bactericidal concentration (MBC) is defined as the concentration of antimicrobial agent from which no colonies grow on petri plates or in the medium. In practice, the MBC is arbitrarily defined as the concentration at which a 1000-fold reduction in colony forming units is observed with respect to the original inoculum (survival of 0. 1%). The broth dilution method consists of inoculating the wells from an MIC microliter plate using a 96-well inoculation grid into a fresh microliter plate containing 100 μl. Mueller-Hinton broth per well. The MBC plates are incubated at 37° C. for 16-20 hrs and the MBC values are determined.

S. aureus [3] = assay: MBC, S. aureus; assay type: cell-based; settings: Staphylococcus aureus, Table II
Excerpt: as §3

[4] = system: myxopyronin-, rifampicin-, and streptolydigin-resistant S. aureus; assay: Growth (optical density at 595 nm) of drug-resistant S. aureus cultured with each drug (FIG. 22); assay type: cell-based; settings: FIG. 22, absorbance at 595 nm
Procedure: FIG. 22 is a bar graph showing the growth of bacterial cultures, measured by its optical density as measured by absorbance of light at 595 nanometers, after bacteria resistant to myxopyronins, rifampicin, and streptolydigin were cultured in the presence of each of these drugs.
The site of action of the myxopyronins on RNA polymerase was investigated by assessing the growth of myxopyronin-, rifampicin-, and streptolydigin-resistant S. aureus in the presence of the 90/10 myxopyronin A/B mixture.

S. aureus [5] = assay: Microdilution MIC, S. aureus; assay type: cell-based
Procedure: as §2

K. pneumoniae = assay: MIC, K. pneumoniae; assay type: cell-based; settings: Klebsiella pneumoniae
Procedure: as §2

M. catarrhalis = assay: MIC, M. catarrhalis; assay type: cell-based; settings: Moraxella catarrhalis
Procedure: as §2

E. faecalis = assay: MIC, E. faecalis; assay type: cell-based
Procedure: as §2

S. pneumonia = assay: MIC, S. pneumonia; assay type: cell-based
Procedure: as §2

M. luteus = assay: MIC, M. luteus; assay type: cell-based; settings: Micrococcus luteus; M. luteus ATCC9341
Procedure: as §2

E. faecium = assay: MIC, E. faecium; assay type: cell-based; settings: E. faecium Pen-R
Procedure: as §2

S. epidermidis = assay: MIC, S. epidermidis; assay type: cell-based; settings: Staphylococcus epidermidis, MRSE, E-R
Procedure: as §2

E. cloacae = assay: MIC, E. cloacae; assay type: cell-based; settings: Enterobacter cloacae
Procedure: as §2

H. influenzae = assay: MIC, H. influenzae; assay type: cell-based; settings: Haemophilus influenzae
Procedure: as §2

P. aeruginosa = assay: MIC, P. aeruginosa; assay type: cell-based; settings: Pseudomonas aeruginosa
Procedure: as §2

[6] = system: rifampicin susceptible and rifampicin resistant strains; assay: microbe, parasite or virus in culture
Procedure: The MIC is reported as a range between the concentration at which no growth is observed and the concentration of the dilution which immediately followed. Selected inhibitors from the RNA polymerase screen described above were tested for their ability to inhibit bacterial growth in a broth microdilution assay as follows. […] Dilution of antimicrobial agents is performed in a sterile, covered 96-well microliter plate with flat bottom wells (Costar #9017), and each well contains 100 μL of both +/-antimicrobial agent. The final concentrations of the small molecule antimicrobial agents are 100, 50, 25, 12.5, 6.25, 3.12, 1.56, 0.78, 0.39, 0.20, 0.10, and 0.05 μg/mL, respectively. Different dilutions are performed for natural product extracts. They are first diluted 100-fold with Mueller-Hinton broth. The final dilutions of the natural product extracts are 200, 400, 800, 1600, 3200, 6400, 12800, 25600, 51200, 1×105, 2×105, and 4 ×105-fold. A 1% DMSO (no-drug) row is prepared in Mueller-Hinton broth as a control for 100% growth on each plate. A Mueller-Hinton broth only with no bacteria growth is also included as a negative control for each plate. Ampicillin and rifampicin are used as positive controls against all bacterial strains in every experiment.
The overnight culture of a single colony is diluted in sterile Mueller-Hinton broth so that, after inoculation, each well contains approximately 5×10^5 CFU/mL. Within 15 minutes of preparation, […] of the adjusted inoculum suspension is added to the microliter plate. Each well is diluted with an equal volume of the antimicrobial agent/control substance diluted with sterile Mueller-Hinton broth. The inoculated microliter plate is incubated at 35° C. for 16-20 hours. The turbidity of each well is determined by measuring the absorbance at 595 nm on the BioRad Model 3550-UV microplate reader. The rows containing broth only (no cells) serve as a control, and the rows containing the titration of 1% DMSO serve as a control for 100% growth. The average of the broth only controls is subtracted from the average of each duplicate. This value is subsequently normalized to the average of the DMSO controls.

[7] = read-out: MIC E. coli*, Table II, mutant strain that has permeabilized cell wall
[8] = Table II, read-out: MBC E. coli
[9] = rifampicin-resistant S. aureus, read-out: MBC rifR-S. aureus

SMILES: CCC/C(C)=C/C=C(\C)C(=O)c1c(O)cc(C(C)CC/C=C/NC(=O)OC)oc1=O (racemic) [MYXO A, (±)-Myxopyronin A]
- IC50 (Human RNAP): > 144 µM
- IC50 (S. aureus RNAP): 24 µM
- MIC (E. coli [1]; [7]): 8 µg/mL (≈ 19.2 µM)
- Relative potency in the in vitro transcription assay using E. coli RNA polymerase (E. coli RNA polymerase): equally potent as the natural product mixtures
- IC50 (E. coli RNA polymerase): 7.19 µM
- MBC (E. coli [2]; read-out: MBC E. coli*): > 30 µg/mL
- MBC (E. coli [2]; [8]): > 30 µg/mL
- MBC (S. aureus [3]; read-out: MBC S. aureus): 15 µg/mL (≈ 35.9 µM)
- MBC (S. aureus [3]; [9]): 15 µg/mL (≈ 35.9 µM)

SMILES: CNC(=O)[C@@H](C)[C@H]1C(=O)/C(=C(O)/C=C/C(C)=C/[C@@H](C)[C@H]2O[C@@]3(C)O[C@H](C=C[C@@]34CO4)[C@@H]2C)C(=O)N1[C@@H]1CC[C@H](O)[C@H](C)O1 [streptolydigin]
- Growth of myxopyronin resistant S. aureus strain in the presence of the drug [4]: inhibits growth
- Growth of rifampicin resistant S. aureus strain in the presence of the drug [4]: inhibits growth
- Growth of streptolydigin-resistant S. aureus strain in the presence of the drug [4]: continues to grow

SMILES: CCCC/C(C)=C/C=C(\C)C(=O)c1c(O)cc(C(C)CC/C=C/NC(=O)OC)oc1=O (racemic) [MYXO B, (±)-myxopyronin B]
- IC50 (Human RNAP): > 139 µM
- MIC (S. aureus [5]; S. aureus MRSA, E-S, CC-S): 1 µg/mL (≈ 2.32 µM)
- MIC (S. aureus [5]; Staphylococcus aureus, ATCC25923, S. aureus ATCC25923, read-out: MIC): 1 µg/mL (≈ 2.32 µM)
- MIC (S. aureus [5]; Staphylococcus aureus, ATCC29213, S. aureus ATCC29213, read-out: MIC): 1 µg/mL (≈ 2.32 µM)
- MIC (S. aureus [5]; Staphylococcus aureus, MRSA, S. aureus MRSA, E-R, CC-S, read-out: MIC): 1 µg/mL (≈ 2.32 µM)
- MIC (S. aureus [5]; Staphylococcus aureus, Table II, read-out: MIC S. aureus): 0.4 µg/mL (≈ 0.927 µM)
- MIC (S. aureus [5]; Staphylococcus aureus, Table II, rifampicin-resistant S. aureus, read-out: MIC rifR-S. aureus): 0.2 µg/mL (≈ 0.463 µM)
- Fold more potent cell-based (growth inhibitory) activity than myxopyronin A (S. aureus [5]; up to, over the bacteria of Table II): up to 75 fold
- MIC (K. pneumoniae): > 64 µg/mL
- MIC (M. catarrhalis; M. catarrhalis beta lactamase negative): 0.5 µg/mL (≈ 1.16 µM)
- MIC (M. catarrhalis; M. catarrhalis beta lactamase positive): 1 µg/mL (≈ 2.32 µM)
- IC50 (S. aureus RNAP): 1.39 µM
- MIC (E. faecalis; E. faecalis Pen-S, Vanco-S): 16 µg/mL (≈ 37.1 µM)
- MIC (E. faecalis; Enterococcus faecalis, ATCC29212, E. faecalis ATCC29212, read-out: MIC): 16 µg/mL (≈ 37.1 µM)
- MIC (E. faecalis; Enterococcus faecalis, E. faecalis Pen-R, Vanco-S, read-out: MIC): 8 µg/mL (≈ 18.5 µM)
- MIC (E. faecalis; Enterococcus faecalis, E. faecalis Pen-S, Vanco-S, read-out: MIC): 32 µg/mL (≈ 74.2 µM)
- MIC (S. pneumonia; S. pneumonia ATCC49619): 8 µg/mL (≈ 18.5 µM)
- MIC (S. pneumonia; S. pneumonia Pen I (MIC 0.12)): 8 µg/mL (≈ 18.5 µM)
- MIC (S. pneumonia; S. pneumonia Pen I (MIC 0.25)): 8 µg/mL (≈ 18.5 µM)
- MIC (S. pneumonia; S. pneumonia Pen I (MIC 1.0)): 8 µg/mL (≈ 18.5 µM)
- MIC (S. pneumonia; S. pneumonia Pen R (MIC 2.0)): 16 µg/mL (≈ 37.1 µM)
- MIC (S. pneumonia; S. pneumonia Pen R (MIC 4.0)): 8 µg/mL (≈ 18.5 µM)
- MIC (S. pneumonia; S. pneumonia Pen S (MIC <0.06)): 8 µg/mL (≈ 18.5 µM)
- MIC (E. coli [1]; ATCC25922, Table III, E. coli ATCC25922, read-out: MIC): > 64 µg/mL
- MIC (E. coli [1]; Table III, E. coli parent (non-permeable), read-out: MIC): > 64 µg/mL
- MIC (E. coli [1]; Table III, E. coli permeable, read-out: MIC): 1 µg/mL (≈ 2.32 µM)
- MIC (E. coli [1]; [7]): 0.4 µg/mL (≈ 0.927 µM)
- MIC (E. coli [1]; Table II, read-out: MIC E. coli): > 100 µg/mL
- Relative potency in the in vitro transcription assay using E. coli RNA polymerase (E. coli RNA polymerase): more potent molecule than A
- IC50 (E. coli RNA polymerase): 1.85 µM
- MIC (M. luteus): 8 µg/mL (≈ 18.5 µM)
- MIC (E. faecium; Vanco-R): > 64 µg/mL
- MIC (E. faecium; Vanco-S): > 64 µg/mL
- MIC (E. faecium; Enterococcus faecium, Vanco-R, read-out: MIC): 64 µg/mL (≈ 148 µM)
- MIC (E. faecium; Enterococcus faecium, Vanco-S, read-out: MIC): 64 µg/mL (≈ 148 µM)
- MBC (E. coli [2]; read-out: MBC E. coli*): 0.2 µg/mL (≈ 0.463 µM)
- MBC (E. coli [2]; [8]): > 100 µg/mL
- MIC (S. epidermidis; CC-R): 1 µg/mL (≈ 2.32 µM)
- MIC (S. epidermidis; CC-S): 4 µg/mL (≈ 9.27 µM)
- MBC (S. aureus [3]; read-out: MBC S. aureus): 0.4 µg/mL (≈ 0.927 µM)
- MBC (S. aureus [3]; [9]): 0.4 µg/mL (≈ 0.927 µM)
- MIC (E. cloacae): > 64 µg/mL
- MIC (H. influenzae; ATCC49247, H. influenzae ATCC49247): 2 µg/mL (≈ 4.63 µM)
- MIC (H. influenzae; H. influenzae non-typable): 8 µg/mL (≈ 18.5 µM)
- MIC (P. aeruginosa; P. aeruginosa ATCC27853): > 64 µg/mL
- MIC (P. aeruginosa; P. aeruginosa, strain not named): > 64 µg/mL

SMILES: CO[C@H]1/C=C/O[C@@]2(C)Oc3c(C)c(O)c4c(O)c(c(/C=N/N5CCN(C)CC5)c(O)c4c3C2=O)NC(=O)/C(C)=C\C=C\[C@H](C)[C@H](O)[C@@H](C)[C@@H](O)[C@@H](C)[C@H](OC(C)=O)[C@@H]1C [rifampicin]
- MIC ([6]; read-out: MIC against resistant strains, background statement b17): > 10 µM
- MIC ([6]; read-out: MIC against rifampicin resistant strains, Example 11, b337): > 100 µM
- MIC ([6]; read-out: MIC against susceptible strains, Example 11, b337): 10 µM (≈ 8.23 µg/mL)
- MIC ([6]; read-out: MIC against susceptible strains, background statement b17): ~0.01 µM (≈ 0.00823 µg/mL)
- Growth of myxopyronin resistant S. aureus strain in the presence of the drug [4]: inhibits growth
- Growth of rifampicin resistant S. aureus strain in the presence of the drug [4]: continues to grow
- Growth of streptolydigin-resistant S. aureus strain in the presence of the drug [4]: inhibited
